Our source for the MIC50 and Activity values is ChEMBL document CHEMBL5113529, “Design, Synthesis, and Biological Evaluation of Dual-Target COX-2/CYP51 Inhibitors for the Treatment of Fungal Infectious Diseases” (J Med Chem, 2022).

In general, MIC50 refers to an inhibitory concentration at the 50% level, which refers to growth in some studies and to a panel of isolates in others.

Data set [1] relates to Candida albicans. Nature of the data set: Antifungal activity against fluconazole- resistant Candida albicans 632 assessed as fungal growth inhibition measured after 72 hrs in presence of naproxen by double dilution method. It is filed as functional.
Data set [2] is described as follows: Toxicity in mouse infected with Candida albicans assessed as ALT level in plasma at 10 ug per 20 g, ip administered on day 2, 4, 6, 8, 10 and 12 and measured on day 14 in presence of naproxen (reference value: 43.6 +/- 4.4 IU/L). It counts as organism-based. The note with it: in vivo, 336 h, dose 10 µg, time 14 day.
Data set [3] relates to Candida albicans. Nature of the data set: Antifungal activity against Candida albicans ATCC SC5314 assessed as fungal growth inhibition measured after 72 hrs in presence of naproxen by double dilution method. It counts as functional.
Data set [4] has as its system Candida albicans. Nature of the data set: Antifungal activity against fluconazole- resistant Candida albicans 904 assessed as fungal growth inhibition measured after 72 hrs in presence of naproxen by double dilution method. It is filed as functional.
Data set [5] concerns Pichia kudriavzevii. The experiment in a line: Antifungal activity against Candida krusei ATCC 6258 assessed as fungal growth inhibition measured after 72 hrs in presence of naproxen by double dilution method. It counts as functional.
Data set [6] in a line: Toxicity in mouse infected with Candida albicans assessed as AST level in plasma at 10 ug per 20 g, ip administered on day 2, 4, 6, 8, 10 and 12 and measured on day 14 in presence of naproxen (reference value: 74.9 +/- 6.7 IU/L). It is filed as organism-based. The note with it: in vivo, 336 h, dose 10 µg, time 14 day.
The test system of data set [7] is Candida albicans. Nature of the data set: Antifungal activity against fluconazole- resistant Candida albicans CaR assessed as fungal growth inhibition measured after 72 hrs in presence of naproxen by double dilution method. It counts as functional.
Data set [8] is filed under the species Mus musculus. Nature of the data set: Antiinflammatory activity in mouse infected with Candida albicans ATCC SC5314 assessed as reduction in COX-2 expression in spleen in presence of naproxen by hematoxylin staining based inverted microscopic analysis. It is filed as functional.
For data set [9], the system named is Candida albicans. Nature of the data set: Antifungal activity against fluconazole- resistant Candida albicans 901 assessed as fungal growth inhibition measured after 72 hrs in presence of naproxen by double dilution method. It is filed as functional.
For data set [10], the system named is Candida tropicalis. Nature of the data set: Antifungal activity against Candida tropicalis ATCC 1369 assessed as fungal growth inhibition measured after 72 hrs in presence of naproxen by double dilution method. It counts as functional.
Data set [11] relates to Candida albicans. The experiment in a line: Induction of morphological changes in Candida albicans ATCC SC5314 assessed as cell leakage measured for 96 hrs by transmission electron microscopic analysis. It is filed as functional, organism-based.
For data set [12], the system named is Candida albicans. Nature of the data set: Induction of morphological changes in Candida albicans ATCC SC5314 assessed as edema cavitation measured for 48 to 72 hrs by transmission electron microscopic analysis. It is filed as functional, organism-based. The note with it: time 48-72 hrs.

Active and inactive are the calls of the source. No cut-off for these calls is given here.

`OC(Cn1cncn1)(Cn1cncn1)c1ccc(F)cc1F` [FLUCONAZOLE]: the MIC50 worked out at 4 µg/mL in data set [1]; 0.25 µg/mL in data set [3]; 2 µg/mL in data set [4]; 1 µg/mL in data set [5]; 2 µg/mL in data set [7]; 4 µg/mL in [9]. For the same compound, the MIC50 in [10] was 0.5 µg/mL. Moreover, the Activity was 42.6 IU/L in data set [2], 76.4 IU/L in data set [6] and 55.7 a.u in [8].

For `COc1ccc2cc([C@H](C)C(=O)NC(Cn3cncn3)C(=O)c3ccccc3)ccc2c1` (some centres not stated), the outcome in data set [11] and in [12] was Active.
